# Laboratory results: US8791118B2, “Pyridopyrazines as highly selective ras-Raf-Mek-Erk signal transduction pathway inhibitors” (Aeterna Zentaris GmbH, priority 2011, dated 2014)
row,melting point,SMILES
1,190 to 191 °C,"Nc1ccccc1-c1cnc2ccc(NC(=O)NCCCCc3ccccc3)nc2n1 [Compound 130, 1-[3-(2-Amino-phenyl)-pyrido[2,3-b]pyrazin-6-yl]-3-(4-phenyl-butyl)-urea]"
2,210 to 211 °C,"CCCn1cc(-c2cnc3ccc(NC(=O)NCCCC(=O)c4ccccc4)nc3n2)cn1 [Compound 131, 1-(4-Oxo-4-phenyl-butyl)-3-[3-(1-propyl-1H-pyrazol-4-yl)-pyrido[2,3-b]pyrazin-6-yl]-urea]"
3,212 °C,"CCOC(=O)Oc1ccc(-c2cnc3ccc(NC(=O)NCCCCc4ccccc4)nc3n2)cc1 [Compound 132, Carbonic acid ethyl ester 4-{6-[3-(4-phenyl-butyl)-ureido]-pyrido[2,3-b]pyrazin-3-yl}-phenyl ester]"
4,247 to 248 °C,"O=C(NCCCCc1ccccc1)Nc1ccc2ncc(-c3ccccc3O)nc2n1 [Compound 133, 1-[3-(2-Hydroxy-phenyl)-pyrido[2,3-b]pyrazin-6-yl]-3-(4-phenyl-butyl)-urea]"
5,225 °C,"CC(C)(C)C(=O)Oc1ccc(-c2cnc3ccc(NC(=O)NCCCCc4ccccc4)nc3n2)cc1 [Compound 135, 2,2-Dimethyl-propionic acid 4-{6-[3-(4-phenyl-butyl)-ureido]-pyrido[2,3-b]pyrazin-3-yl}-phenyl ester]"
6,227 to 230 °C,"CSc1ccc(-c2cnc3ccc(NC(=O)NCCCCc4ccccc4)nc3n2)cc1 [Compound 137, 1-[3-(4-Methylsulfanyl-phenyl)-pyrido[2,3-b]pyrazin-6-yl]-3-(4-phenyl-butyl)-urea]"
7,237 to 240 °C,"N#Cc1cccc(-c2cnc3ccc(NC(=O)NCCCCc4ccccc4)nc3n2)c1 [Compound 138, 1-[3-(3-Cyano-phenyl)-pyrido[2,3-b]pyrazin-6-yl]-3-(4-phenyl-butyl)-urea]"
8,223 to 225 °C,"COc1cc(Nc2cnc3ccc(NC(=O)NCCCCc4ccccc4)nc3n2)cc(OC)c1OC [Compound 139, 1-(4-Phenyl-butyl)-3-[3-(3,4,5-trimethoxy-phenylamino)-pyrido[2,3-b]pyrazin-6-yl]-urea]"
9,136 to 139 °C,"COc1cc(Nc2cnc3ccc(NC(=O)NCCCCc4ccccc4)nc3n2)cc(O)c1OC [Compound 141, 1-[3-(3-Hydroxy-4,5-dimethoxy-phenylamino)-pyrido[2,3-b]pyrazin-6-yl]-3-(4-phenyl-butyl)-urea]"
10,248 to 249 °C,"O=C(NCCCCc1ccccc1)Nc1ccc2ncc(-c3ccc(F)cc3O)nc2n1 [Compound 144, 1-[3-(4-Fluoro-2-hydroxy-phenyl)-pyrido[2,3-b]pyrazin-6-yl]-3-(4-phenyl-butyl)-urea]"
11,256 to 258 °C,"COc1ccc(-c2cnc3ccc(NC(=O)NCCCCc4ccccc4)nc3n2)cc1S(=O)(=O)N1CCOCC1 [Compound 145, 1-{3-[4-Methoxy-3-(morpholine-4-sulfonyl)-phenyl]-pyrido[2,3-b]pyrazin-6-yl}-3-(4-phenyl-butyl)-urea]"
12,194 to 197 °C,"COc1ncccc1-c1cnc2ccc(NC(=O)NCCCCc3ccccc3)nc2n1 [Compound 146, 1-[3-(2-Methoxy-pyridin-3-yl)-pyrido[2,3-b]pyrazin-6-yl]-3-(4-phenyl-butyl)-urea]"
13,226 to 229 °C,"C[C@H](CCCc1ccccc1)NC(=O)Nc1ccc2ncc(-c3ccc(O)cc3)nc2n1 [Compound 147, 1-[3-(4-Hydroxy-phenyl)-pyrido[2,3-b]pyrazin-6-yl]-3-((R)-1-methyl-4-phenyl-butyl)-urea]"
14,196 to 198 °C,"COc1ccc(-c2cnc3ccc(NC(=O)N[C@H](C)CCCc4ccccc4)nc3n2)cc1O [Compound 148, 1-[3-(3-Hydroxy-4-methoxy-phenyl)-pyrido[2,3-b]pyrazin-6-yl]-3-((R)-1-methyl-4-phenyl-butyl)-urea]"

# The next lines start with the compound.
row,SMILES,melting point
1,CCNC(=O)Oc1ccc(-c2cnc3ccc(NC(=O)NCCCCc4ccccc4)nc3n2)cc1,198 °C
2,Cl.O=C(NCCCCc1ccccc1)Nc1ccc2ncc(N3CCNCC3)nc2n1,209 to 211 °C
3,"Cc1n[nH]c(C)c1-c1cnc2ccc(NC(=O)NCCCCc3ccccc3)nc2n1 [Compound 91, 1-[3-(3,5-Dimethyl-1H-pyrazol-4-yl)-pyrido[2,3-b]pyrazin-6-yl]-3-(4-phenyl-butyl)-urea]",299 to 300 °C
4,"COc1ccc(-c2cnc3ccc(NC(=O)NCCCCc4ccccc4)nc3n2)c(OC)c1OC [Compound 92, 1-(4-Phenyl-butyl)-3-[3-(2,3,4-trimethoxy-phenyl)-pyrido[2,3-b]pyrazin-6-yl]-urea]",135 to 138 °C
5,"CN1CCN(c2cnc3ccc(NC(=O)NCCCCc4ccccc4)nc3n2)CC1 [Compound 93, 1-[3-(4-Methyl-piperazin-1-yl)-pyrido[2,3-b]pyrazin-6-yl]-3-(4-phenyl-butyl)-urea]",181 to 183 °C
6,"O=C(NCCCCc1ccccc1)Nc1ccc2ncc(-c3ccc4nc[nH]c4c3)nc2n1 [Compound 94, 1-[3-(3H-Benzoimidazol-5-yl)-pyrido[2,3-b]pyrazin-6-yl]-3-(4-phenyl-butyl)-urea]",226 °C
7,"Nc1cccc(-c2cnc3ccc(NC(=O)NCCCCc4ccccc4)nc3n2)c1 [Compound 95, 1-[3-(3-Amino-phenyl)-pyrido[2,3-b]pyrazin-6-yl]-3-(4-phenyl-butyl)-urea]",200 to 203 °C
8,"Cc1ccc(CCCCNC(=O)Nc2ccc3ncc(-c4cnn(C)c4)nc3n2)cc1 [Compound 97, 1-[3-(1-Methyl-1H-pyrazol-4-yl)-pyrido[2,3-b]pyrazin-6-yl]-3-(4-p-tolyl-butyl)-urea]",202 to 204 °C
9,"COc1ccc(-c2cnc3ccc(NC(=O)N[C@H](C)CCCc4ccccc4)nc3n2)cc1OC [Compound 98, 1-[3-(3,4-Dimethoxy-phenyl)-pyrido[2,3-b]pyrazin-6-yl]-3-((R)-1-methyl-4-phenyl-butyl)-urea]",195 to 197 °C
10,"Cn1cc(-c2cnc3ccc(NC(=O)NCCCCc4ccc(F)cc4)nc3n2)cn1 [Compound 99, 1-[4-(4-Fluoro-phenyl)-butyl]-3-[3-(1-methyl-1H-pyrazol-4-yl)-pyrido[2,3-b]pyrazin-6-yl]-urea]",197 to 200 °C
11,"CCCn1cc(-c2cnc3ccc(NC(=O)NCCCC(C)(C)c4ccccc4)nc3n2)cn1 [Compound 100, 1-(4-Methyl-4-phenyl-pentyl)-3-[3-(1-propyl-1H-pyrazol-4-yl)-pyrido[2,3-b]pyrazin-6-yl]-urea]",205 to 207 °C
12,"CCOc1ccccc1-c1cnc2ccc(NC(=O)NCCCCc3ccccc3)nc2n1 [Compound 102, 1-[3-(2-Ethoxy-phenyl)-pyrido[2,3-b]pyrazin-6-yl]-3-(4-phenyl-butyl)-urea]",173 to 175 °C
13,"O=C(NCCCCc1ccccc1)Nc1ccc2ncc(-c3cc(Cl)c(O)c(Cl)c3)nc2n1 [Compound 103, 1-[3-(3,5-Dichloro-4-hydroxy-phenyl)-pyrido[2,3-b]pyrazin-6-yl]-3-(4-phenyl-butyl)-urea]",271 to 273 °C
14,"O=C(NCCCCc1ccccc1)Nc1ccc2ncc(-c3cccc(O)c3)nc2n1 [Compound 104, 1-[3-(3-Hydroxy-phenyl)-pyrido[2,3-b]pyrazin-6-yl]-3-(4-phenyl-butyl)-urea]",226 to 228 °C
15,"O=C(NCCCCc1ccccc1)Nc1ccc2ncc(-c3ccn[nH]3)nc2n1 [Compound 105, 1-(4-Phenyl-butyl)-3-[3-(2H-pyrazol-3-yl)-pyrido[2,3-b]pyrazin-6-yl]-urea]",280 °C (dec.)
16,"Cc1cc(O)ccc1-c1cnc2ccc(NC(=O)NCCCCc3ccccc3)nc2n1 [Compound 106, 1-[3-(4-Hydroxy-2-methyl-phenyl)-pyrido[2,3-b]pyrazin-6-yl]-3-(4-phenyl-butyl)-urea]",207 to 210 °C
17,"CC(=O)Oc1ccc(-c2cnc3ccc(NC(=O)NCCCCc4ccccc4)nc3n2)cc1 [Compound 107, Acetic acid 4-{6-[3-(4-phenyl-butyl)-ureido]-pyrido[2,3-b]pyrazin-3-yl}-phenyl ester]",220 °C
18,"O=C(NCCCCc1ccccc1)Nc1ccc2ncc(-c3ccc(O)c(Br)c3)nc2n1 [Compound 109, 1-[3-(3-Bromo-4-hydroxy-phenyl)-pyrido[2,3-b]pyrazin-6-yl]-3-(4-phenyl-butyl)-urea]",238 to 241 °C
19,"Cn1cc(-c2cnc3ccc(NC(=O)NCC4CCc5ccccc5C4)nc3n2)cn1 (stereo not shown) [Compound 111, 1-[3-(1-Methyl-1H-pyrazol-4-yl)-pyrido[2,3-b]pyrazin-6-yl]-3-(1,2,3,4-tetrahydro-naphthalen-2-ylmethyl)-urea]",230 to 233 °C
20,"Cc1c(-c2cnc3ccc(NC(=O)NCCCCc4ccccc4)nc3n2)cnn1-c1ccccc1 [Compound 113, 1-[3-(5-Methyl-1-phenyl-1H-pyrazol-4-yl)-pyrido[2,3-b]pyrazin-6-yl]-3-(4-phenyl-butyl)-urea]",224 to 226 °C
21,"COc1ccc(CCCCNC(=O)Nc2ccc3ncc(-c4cnn(C)c4)nc3n2)cc1 [Compound 115, 1-[4-(4-Methoxy-phenyl)-butyl]-3-[3-(1-methyl-1H-pyrazol-4-yl)-pyrido[2,3-b]pyrazin-6-yl]-urea]",195 to 196 °C
22,"COc1ccc(-c2cnc3ccc(NC(=O)NCCCCc4ccccc4)nc3n2)cc1 [Compound 118, 1-[3-(4-Methoxy-phenyl)-pyrido[2,3-b]pyrazin-6-yl]-3-(4-phenyl-butyl)-urea]",200 to 203 °C
23,"CCCNc1cnc2ccc(NC(=O)NCCCCc3ccccc3)nc2n1 [Compound 119, 1-(4-Phenyl-butyl)-3-(3-propylamino-pyrido[2,3-b]pyrazin-6-yl)-urea]",118 to 120 °C
24,"Cc1ccccc1-c1cnc2ccc(NC(=O)NCCCCc3ccccc3)nc2n1 [Compound 120, 1-(4-Phenyl-butyl)-3-(3-o-tolyl-pyrido[2,3-b]pyrazin-6-yl)-urea]",158 to 160 °C
25,"COc1ccccc1-c1cnc2ccc(NC(=O)NCCCCc3ccccc3)nc2n1 [Compound 124, 1-[3-(2-Methoxy-phenyl)-pyrido[2,3-b]pyrazin-6-yl]-3-(4-phenyl-butyl)-urea]",173 to 177 °C
26,"C[C@H](CCCc1ccccc1)NC(=O)Nc1ccc2ncc(-c3ccc(O)c(Cl)c3)nc2n1 [Compound 129, 1-[3-(3-Chloro-4-hydroxy-phenyl)-pyrido[2,3-b]pyrazin-6-yl]-3-((R)-1-methyl-4-phenyl-butyl)-urea]",225 to 228 °C
